This is an account of results in US11813306B2, “Cyclic tetramer compounds as proprotein convertase subtilisin/kexin type 9 (PCSK9) inhibitors for the treatment of metabolic disorders” (NOVARTIS AG, priority 2018, dated 2023).

In the assay the target is human PCSK9 (Homo sapiens, UniProt Q8NBP7). Kind of assay: PCSK9 ligand binding assay (TR-FRET): interference with binding of human PCSK9 to human LDLR. To be noted: for IC50: Human PCSK9 Alexa Fluor 647 / Human LDLR extracellular domain-Europium Kryptate; for Max % inhibition: efficacy (Amax), 100% = 1 uM unlabeled human PCSK9, 0% = DMSO. As for the experimental part:
Example 10: PCSK9 Ligand Binding Assay
The PCSK9 binding of the compounds of the disclosure were measured using a time resolved fluorescence resonance energy transfer (TR-FRET) assay. This time resolved fluorescence resonance energy transfer (TR-FRET) assay measures the ability of a compound of the present disclosure to interfere with the binding of human PCSK9 to human LDLR, providing measures of both potency (IC50) and efficacy (Amax).
Human PCSK9 Alexa Fluor 647
Human LDLR extracellular domain-Europium Kryptate
Proxi plate-low volume assay plate (PerkinElmer #6008280)
Greiner V-bottom (Greiner BioOne #781280)
Assay Buffer • 20 mM HEPES, pH 7.5 • 150 mM NaCl • 1 mM CaCl2 • 0.01% v/v Tween20 • 0.01% w/v BSA
A master compound plate was prepared in a Greiner V bottom plate by diluting compounds of the disclosure in dimethylsulfoxide to the correct concentration for the desired top concentration based on the desired final concentration: for a 30 uM final concentration the master plate concentration is 1.5 mM (68 uL DMSO+12 uL 10 mM of a compound of the disclosure), for a 10 uM final concentration the master plate concentration is 0.5 mM (76 uL DMSO+4 uL 10 mM of a compound of the disclosure), for a 3 uM final concentration the master plate concentration is 150 uM (69 uL DMSO+1 uL 10 mM of a compound of the disclosure). These solutions were pipetted into columns 1 and 11 of the compound plate. Threefold serial dilutions were generated in columns 2-10 and 12-20 of the compound plate by transferring 10 uL into 20 uL of DMSO. Columns 21 and 22 of the compound plate were negative controls containing DMSO alone.
An intermediate plate was generated in a Greiner V bottom plate by transferring 8 uL from each well of the master plate into a corresponding well containing 92 uL of assay buffer and mixing thoroughly.
A Proxi plate-low volume assay plate was used for the assay. To all wells of the plate was added 10 uL of 16 nM Human PCSK9 Alexa Fluor 647, followed by 5 uL from the intermediate plate. For the positive control wells in columns 23 and 24 of the plate, 5 uL of unlabeled human PCSK9 was added at 4 uM in assay buffer containing 8% DMSO. Following a 30 minute incubation, 5 uL of 4 nM Human LDLR extracellular domain-Europium Kryptate was added and the mixture was incubated for an additional 2 hours.
The TR-FRET signal was measured on an EnVision or PheraStar instrument with a 60 ms delay, 330 nm excitation and 665 nm emission (FRET), and 330 nm excitation and 615 nm (Europium). The FRET ratio (FRET/Europium) was used for calculations.
No inhibition (0%) was observed from the wells containing DMSO (Control) in columns 21 and 22 of the compound plate. Full inhibition (100%) was observed from the wells containing 1 uM human PCSK9 (Control) in columns 23 and 24 of the plate. Data is expressed as percent inhibition: (value—0%)/(100%-0%).
In general terms: Time-resolved FRET reads energy transfer from a long-lived donor to a nearby acceptor.

Chain of human PCSK9 (Q8NBP7 153-692): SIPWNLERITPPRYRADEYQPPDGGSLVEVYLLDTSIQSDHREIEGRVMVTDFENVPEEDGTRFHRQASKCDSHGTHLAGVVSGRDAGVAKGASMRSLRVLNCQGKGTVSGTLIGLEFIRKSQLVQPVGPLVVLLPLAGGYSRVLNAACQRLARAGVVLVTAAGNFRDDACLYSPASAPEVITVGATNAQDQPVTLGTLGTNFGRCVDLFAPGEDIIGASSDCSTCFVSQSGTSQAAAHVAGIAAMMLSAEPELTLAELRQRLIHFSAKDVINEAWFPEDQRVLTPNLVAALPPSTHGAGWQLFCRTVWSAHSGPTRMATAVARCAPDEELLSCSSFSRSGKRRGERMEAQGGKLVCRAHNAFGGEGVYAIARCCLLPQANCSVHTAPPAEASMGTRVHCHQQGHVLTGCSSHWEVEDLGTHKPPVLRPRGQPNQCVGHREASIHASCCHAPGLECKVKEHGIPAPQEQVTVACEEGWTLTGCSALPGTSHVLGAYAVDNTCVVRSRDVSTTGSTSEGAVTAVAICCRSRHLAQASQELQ
Chain of human PCSK9 (Q8NBP7 31-152 partner limits assumed): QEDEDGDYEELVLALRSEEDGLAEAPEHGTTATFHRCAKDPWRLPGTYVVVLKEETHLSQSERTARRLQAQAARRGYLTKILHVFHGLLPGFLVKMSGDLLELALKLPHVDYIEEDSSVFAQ

A word on the IC50: it is the concentration at which inhibition is half-maximal. On to `C[C@H]1C(=O)N[C@@H](CO)C(=O)N[C@@]2(Cc3ccc(Cl)cc3)CCCN(C2)C(=O)[C@H](Cc2ccccn2)CC(=O)N1Cc1ccc(Cl)cc1Oc1ccc(-c2cnc(CN3CCCC3)n2C)cc1` [Compound 1, (3R,7S,10S,13R)-6-(4-Chloro-2-(4-(1-methyl-2-(pyrrolidin-1-ylmethyl)-1H-imidazol-5-yl)phenoxy)benzyl)-13-(4-chlorobenzyl)-10-(hydroxymethyl)-7-methyl-3-(pyridin-2-ylmethyl)-1,6,9,12-tetraazabicyclo[11.3.1]heptadecane-2,5,8,11-tetraone], for which the IC50 came to 0.562 nM and the Max % inhibition is 103.2%.
The like results for `COC[C@@H]1NC(=O)[C@H](C)N(Cc2ccc(Cl)cc2Oc2ccc(-c3cnc(CN(C)C)n3C)cc2)C(=O)C[C@@H](CC(F)(F)F)C(=O)N2CCC[C@@](Cc3ccc(Cl)cc3)(C2)NC1=O` [Compound 2, (3S, 7S, 10S, 13R)-6-(4-chloro-2-(4-(2-((dimethylamino)methyl)-1-methyl-1H-imidazol-5-yl)phenoxy)benzyl)-13-(4-chlorobenzyl)-10-(methoxymethyl)-7-methyl-3-(2,2,2-trifluoroethyl)-1,6,9,12-tetraazabicyclo[11.3.1]heptadecane-2,5,8,11-tetraone] were, in that order, 0.847 nM and 112.5%.
Regarding `COC[C@@H]1NC(=O)[C@H](C)N(Cc2c(F)cc(Cl)cc2Oc2ccc(-c3cnc(CN(C)C)n3C)cc2)C(=O)C[C@@H](Cc2cccc[n+]2[O-])C(=O)N2CCC[C@@](Cc3ccc(Cl)cc3)(C2)N(C)C1=O` [Compound 3, 2-(((3R, 7S, 10S, 13R)-6-(4-chloro-2-(4-(2-((dimethylamino)methyl)-1-methyl-1H-imidazol-5-yl)phenoxy)-6-fluorobenzyl)-13-(4-chlorobenzyl)-10-(methoxymethyl)-7,12-dimethyl-2,5,8,11-tetraoxo-1,6,9,12-tetraazabicyclo[11.3.1]heptadecan-3-yl)methyl)pyridine 1-oxide], the IC50 came out at 0.452 nM and the Max % inhibition is recorded as 113.9%.
The like results for `COC[C@@H]1NC(=O)[C@H](C)N(Cc2ccc(Cl)cc2Oc2ccc(-c3cnc(CN(C)C)n3C)cc2)C(=O)C[C@@H](Cc2cccc(C)n2)C(=O)N2CCC[C@@](Cc3ccc(Cl)cc3)(C2)NC1=O` [Compound 4, (3R,7S,10S,13R)-6-(4-Chloro-2-(4-(2-((dimethylamino)methyl)-1-methyl-1H-imidazol-5-yl)phenoxy)benzyl)-13-(4-chlorobenzyl)-10-(methoxymethyl)-7-methyl-3-((6-methylpyridin-2-yl)methyl)-1,6,9,12-tetraazabicyclo[11.3.1]heptadecane-2,5,8,11-tetraone] were, in that order, 0.558 nM and 106.4%.
The like results for `C[C@H]1C(=O)N[C@@H](CO)C(=O)N[C@@]2(Cc3ccc(Cl)cc3)CCCN(C2)C(=O)[C@H](CC(F)(F)F)CC(=O)N1Cc1c(F)cc(Cl)cc1Oc1ccc(-c2cnc(CNC3CCC3)n2C)cc1` [Compound 5, (3S, 7S, 10S, 13R)-6-(4-chloro-2-(4-(2-((cyclobutylamino)methyl)-1-methyl-1H-imidazol-5-yl)phenoxy)-6-fluorobenzyl)-13-(4-chlorobenzyl)-10-(hydroxymethyl)-7-methyl-3-(2,2,2-trifluoroethyl)-1,6,9,12-tetraazabicyclo[11.3.1]heptadecane-2,5,8,11-tetraone] were, in that order, 0.4 nM and 101.9%.
For the compound `COC[C@@H]1NC(=O)[C@H](C)N(Cc2ccc(Cl)cc2Oc2ccc(-c3cnc(CNC(C)(C)C)n3C)cc2)C(=O)C[C@@H](CC(F)(F)F)C(=O)N2CCC[C@@](Cc3ccc(Cl)cc3)(C2)NC1=O` [Compound 6, (3S, 7S, 10S, 13R)-6-(2-(4-(2-((tert-butylamino)methyl)-1-methyl-1H-imidazol-5-yl)phenoxy)-4-chlorobenzyl)-13-(4-chlorobenzyl)-10-(methoxymethyl)-7-methyl-3-(2,2,2-trifluoroethyl)-1,6,9,12-tetraazabicyclo[11.3.1]heptadecane-2,5,8,11-tetraone], the IC50 turned out to be 0.956 nM and the Max % inhibition is given as 119.9%.
The corresponding values for `Cc1c(CN(C)C)ncn1-c1ccc(Oc2cc(Cl)ccc2CN2C(=O)C[C@@H]([C@@H]3CCc4ccccc43)C(=O)N3CCC[C@@](Cc4ccc(Cl)cc4)(C3)NC(=O)[C@H](CO)NC(=O)[C@@H]2C)cc1` [Compound 7, (3S, 7S, 10S, 13R)-6-(4-chloro-2-(4-(4-((dimethylamino)methyl)-5-methyl-1H-imidazol-1-yl)phenoxy)benzyl)-13-(4-chlorobenzyl)-3-((S)-2,3-dihydro-1H-inden-1-yl)-10-(hydroxymethyl)-7-methyl-1,6,9,12-tetraazabicyclo[11.3.1]heptadecane-2,5,8,11-tetraone] are 0.401 nM and 107.3%.
The like results for `COC[C@@H]1NC(=O)[C@H](C)N(Cc2c(F)cc(Cl)cc2Oc2ccc(-c3cnc(CN(C)C)n3C)nc2)C(=O)C[C@@H](CC(F)(F)F)C(=O)N2CCC[C@@](Cc3ccc(Cl)cc3)(C2)NC1=O` [Compound 8] were, in that order, 0.465 nM and 104.7%.
The corresponding values for `COC[C@@H]1NC(=O)[C@H](C)N(Cc2ccc(Cl)cc2Oc2ccc(-c3cnc(CN(C)C)n3C)cc2)C(=O)C[C@@H](CC(F)(F)F)C(=O)N2CCC[C@@](Cc3ccc(Cl)cc3)(C2)N(C)C1=O` [Compound 9, (3S, 7S, 10S, 13R)-6-(4-chloro-2-(4-(2-((dimethylamino)methyl)-1-methyl-1H-imidazol-5-yl)phenoxy)benzyl)-13-(4-chlorobenzyl)-10-(methoxymethyl)-7,12-dimethyl-3-(2,2,2-trifluoroethyl)-1,6,9,12-tetraazabicyclo[11.3.1]heptadecane-2,5,8,11-tetraone] are 0.22 nM and 111.3%.
On to `C[C@H]1C(=O)N[C@@H](CO)C(=O)N[C@@]2(Cc3ccc(Cl)cc3)CCCN(C2)C(=O)[C@H](CC2CC2)CC(=O)N1Cc1c(F)cc(Cl)cc1Oc1ccc(-c2cnc(CN3CCCC3)n2C)cc1` [Compound 10, (3R, 7S, 10S, 13R)-6-(4-chloro-2-fluoro-6-(4-(1-methyl-2-(pyrrolidin-1-ylmethyl)-1H-imidazol-5-yl)phenoxy)benzyl)-13-(4-chlorobenzyl)-3-(cyclopropylmethyl)-10-(hydroxymethyl)-7-methyl-1,6,9,12-tetraazabicyclo[11.3.1]heptadecane-2,5,8,11-tetraone], for which the IC50 came out at 0.152 nM and the Max % inhibition turned out to be 115.5%.
The like results for `C[C@H]1C(=O)N[C@@H](CO)C(=O)N[C@@]2(Cc3ccc(Cl)cc3)CCCN(C2)C(=O)[C@H](Cc2ccccc2)CC(=O)N1Cc1c(F)cc(Cl)cc1Oc1ccc(-c2cnc(CN(C)C)n2C)cc1` [Compound 11, (3R, 7S, 10S, 13R)-3-benzyl-6-(4-chloro-2-(4-(2-((dimethylamino)methyl)-1-methyl-1H-imidazol-5-yl)phenoxy)-6-fluorobenzyl)-13-(4-chlorobenzyl)-10-(hydroxymethyl)-7-methyl-1,6,9,12-tetraazabicyclo[11.3.11]-heptadecane-2,5,8,11-tetraone] were, in that order, 0.351 nM and 110.0%.
The like results for `COC[C@@H]1NC(=O)[C@H](C)N(Cc2ccc(Cl)cc2Oc2ccc(-c3cnc(CN(C)C)n3C)nc2)C(=O)C[C@@H](CC(F)(F)F)C(=O)N2CCC[C@@](Cc3ccc(Cl)cc3)(C2)N(C)C1=O` [Compound 12, (3S, 7S, 10S, 13R)-6-(4-chloro-2-((6-(2-((dimethylamino)methyl)-1-methyl-1H-imidazol-5-yl)pyridin-3-yl)oxy)benzyl)-13-(4-chlorobenzyl)-10-(methoxymethyl)-7,12-dimethyl-3-(2,2,2-trifluoroethyl)-1,6,9,12-tetraazabicyclo[11.3.1]heptadecane-2,5,8,11-tetraone] were, in that order, 0.152 nM and 112.8%.
Turning to `COC[C@@H]1NC(=O)[C@H](C)N(Cc2c(F)cc(Cl)cc2Oc2ccc(-c3cnc(CN4CCCC4)n3C)cc2)C(=O)C[C@@H](Cc2cccc(C)n2)C(=O)N2CCC[C@@](Cc3ccc(Cl)cc3)(C2)N(C)C1=O` [Compound 14], the IC50 worked out at 0.632 nM and the Max % inhibition is 102.7%.
